Experimental data from ChEMBL document CHEMBL1201862, “PubChem BioAssay data set” (2004).
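Results reflect a 48-hour exposure of cells in 96-well plates to compound at five concentrations. At the GI50, growth is halved.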 Calls of active or inactive are those of the source. Rule as the data show it: active = GI50 up to about 1.1 µM and inactive = higher.

Assays:
Experiment in all cases: inhibition of tumour cell growth, NCI panel, 48 h
[1] = system: MDA-MB-231
[2] = system: CAKI-1
[3] = system: A498
[4] = system: 786-0
[5] = system: PC-3
[6] = system: MCF7
[7] = system: Hs-578T
[8] = system: NCI/ADR-RES
[9] = system: SR
[10] = system: RXF 393
[11] = system: SF-539
[12] = system: HCC 2998
[13] = system: NCI-H522
[14] = system: DLD-1
[15] = system: M19-MEL
[16] = system: LXFL 529
[17] = system: KM-20L2
[18] = system: DMS-114
[19] = system: SNB-78

Row | SMILES | GI50 [1] | GI50 [2] | GI50 [3] | GI50 [4] | GI50 [5] | GI50 [6] | GI50 [7] | GI50 [8] | GI50 [9] | GI50 [10] | GI50 [11] | GI50 [12] | GI50 [13] | GI50 [14] | GI50 [15] | GI50 [16] | GI50 [17] | GI50 [18] | GI50 [19]
1 | C=CC(=O)N1C/C(=C\c2ccc(OC)cc2)C(=O)/C(=C/c2ccc(OC)cc2)C1 | 3.07 µM (inactive) | 3.22 µM (inactive) | 1.73 µM (inactive) | 1.74 µM (inactive) | 1.83 µM (inactive) | 0.628 µM (active) | 3.34 µM (inactive) | 3.12 µM (inactive) | 0.67 µM (active) | 1.61 µM (inactive) | 1.71 µM (inactive) | 1.5 µM (inactive) |  |  |  |  |  |  | 
2 | Oc1ccnc(SCc2ccc(Cl)cc2)n1 | > 100 µM (inactive) | > 100 µM (inactive) | > 100 µM (inactive) | > 100 µM (inactive) | > 100 µM (inactive) | > 100 µM (inactive) | > 100 µM (inactive) | > 100 µM (inactive) | > 100 µM (inactive) | > 100 µM (inactive) | > 100 µM (inactive) | 13.4 µM (inactive) | 62.2 µM (inactive) |  |  |  |  |  | 
3 | Nc1nc(O)c2[nH]cnc2[n+]1[O-] | > 100 µM (inactive) |  | > 100 µM (inactive) | > 100 µM (inactive) | > 100 µM (inactive) | 37.1 µM (inactive) | > 100 µM (inactive) | > 100 µM (inactive) | 75.3 µM (inactive) | > 100 µM (inactive) | > 100 µM (inactive) |  | > 100 µM (inactive) |  |  |  |  |  | 
4 | O=c1cccc(Cl)[nH]1 | > 100 µM (inactive) | > 100 µM (inactive) |  | > 100 µM (inactive) | > 100 µM (inactive) | > 100 µM (inactive) | > 100 µM (inactive) | > 100 µM (inactive) | > 100 µM (inactive) | > 100 µM (inactive) | > 100 µM (inactive) |  | > 100 µM (inactive) |  |  |  |  |  | 
5 | CCNC(=O)COc1ccc(Cl)c(C)c1 |  | > 100 µM (inactive) | > 100 µM (inactive) | > 100 µM (inactive) |  |  |  |  | > 100 µM (inactive) | > 100 µM (inactive) | > 100 µM (inactive) | > 100 µM (inactive) | > 100 µM (inactive) | > 100 µM (inactive) | > 100 µM (inactive) | > 100 µM (inactive) | > 100 µM (inactive) | > 100 µM (inactive) | > 100 µM (inactive)
6 | O=C1C(Cl)C2(CC(/C=C/c3cccs3)=NN2c2cccc(S(=O)(=O)O)c2)N1c1nc2ccccc2s1 (stereo not drawn) | > 100 µM (inactive) | 37.1 µM (inactive) | 76.2 µM (inactive) | 94.6 µM (inactive) | > 100 µM (inactive) | 46.6 µM (inactive) | > 100 µM (inactive) | > 100 µM (inactive) | 29.9 µM (inactive) | > 100 µM (inactive) | > 100 µM (inactive) | > 100 µM (inactive) | 18.2 µM (inactive) |  |  |  |  |  | 
7 | COc1nc(N=P(c2ccccc2)(c2ccccc2)c2ccccc2)cc(=O)n1C | > 100 µM (inactive) | > 100 µM (inactive) | > 100 µM (inactive) | > 100 µM (inactive) | > 100 µM (inactive) | > 100 µM (inactive) | > 100 µM (inactive) | > 100 µM (inactive) | 0.0233 µM (active) | > 100 µM (inactive) | > 100 µM (inactive) | > 100 µM (inactive) | > 100 µM (inactive) |  |  |  |  |  | 
8 | Cn1ncc2ccc3[nH]c4ccccc4c(=O)c3c21 |  | 23.4 µM (inactive) | 22.4 µM (inactive) | 36.5 µM (inactive) |  |  |  |  | 29.9 µM (inactive) | 14.7 µM (inactive) |  | 31.4 µM (inactive) | 17.5 µM (inactive) | 27.5 µM (inactive) | 23.2 µM (inactive) | 30 µM (inactive) | 33.8 µM (inactive) | 35.8 µM (inactive) | 27.7 µM (inactive)
9 | O=C1/C(=C/C=C/c2ccccc2)CCC1CNc1ccccc1 (stereo not drawn) | 22 µM (inactive) | 40.2 µM (inactive) | > 27 µM (inactive) | 16.6 µM (inactive) | 36 µM (inactive) | 6.49 µM (inactive) | > 67 µM (inactive) | 96.8 µM (inactive) | 3.52 µM (inactive) | 19.8 µM (inactive) | > 54.5 µM (inactive) | > 68.5 µM (inactive) | 9.62 µM (inactive) |  |  |  |  |  | 
10 | COc1ccc(/C=N\N2CC(=O)N3C4C=CC(CC4)N3C2=O)cc1 (stereo not drawn) | > 100 µM (inactive) | > 100 µM (inactive) | > 100 µM (inactive) | > 100 µM (inactive) | > 100 µM (inactive) | > 100 µM (inactive) | 46.3 µM (inactive) | 81.8 µM (inactive) | > 100 µM (inactive) |  | > 100 µM (inactive) |  |  |  |  |  |  |  | 
11 | FC(F)(Sc1nc2ccccc2[nH]1)c1nc2ccccc2o1 | > 100 µM (inactive) | > 100 µM (inactive) | > 100 µM (inactive) | > 100 µM (inactive) | > 100 µM (inactive) | > 100 µM (inactive) | > 100 µM (inactive) | > 100 µM (inactive) | > 100 µM (inactive) | > 100 µM (inactive) | > 100 µM (inactive) | > 100 µM (inactive) | 15.8 µM (inactive) |  |  |  |  |  | 
12 | Sc1ncc(-c2cncc(-c3cnc(S)nc3)n2)cn1 | > 100 µM (inactive) | > 100 µM (inactive) | 52.2 µM (inactive) | > 100 µM (inactive) | > 100 µM (inactive) | > 100 µM (inactive) | > 100 µM (inactive) | > 100 µM (inactive) | 85.1 µM (inactive) | > 100 µM (inactive) | > 100 µM (inactive) | > 100 µM (inactive) | > 100 µM (inactive) |  |  |  |  |  | 
13 | CCOC(=O)C1(C#N)C(c2ccccc2)CC(O)(c2ccc(OC)cc2)C(C(=O)c2ccc(OC)cc2)C1c1ccccc1 (stereo not drawn) |  | 98.2 µM (inactive) |  | > 100 µM (inactive) |  |  |  |  | > 100 µM (inactive) | > 100 µM (inactive) |  | > 100 µM (inactive) | > 100 µM (inactive) | > 100 µM (inactive) | > 100 µM (inactive) | > 100 µM (inactive) | > 100 µM (inactive) | > 100 µM (inactive) | > 100 µM (inactive)
14 | Brc1cc(CCOC2CCCCO2)c(-c2sccc2CCOC2CCCCO2)s1 (stereo not drawn) | > 100 µM (inactive) | > 91.4 µM (inactive) | > 69 µM (inactive) | 35.1 µM (inactive) | 42.2 µM (inactive) | 20.3 µM (inactive) | 13.9 µM (inactive) | 40.7 µM (inactive) | 9.75 µM (inactive) | 0.8 µM (active) | 55.5 µM (inactive) | 31.9 µM (inactive) | 14.4 µM (inactive) |  |  |  |  |  | 
15 | Cn1c(=O)c(Cl)c(N=[N+]=[N-])c2ccccc21 | 60.5 µM (inactive) | 78.7 µM (inactive) | > 100 µM (inactive) |  | 78.7 µM (inactive) | 67.3 µM (inactive) | > 100 µM (inactive) | > 100 µM (inactive) | 58.5 µM (inactive) | 69.2 µM (inactive) | > 100 µM (inactive) | > 100 µM (inactive) | 74.3 µM (inactive) |  |  |  |  |  | 
16 | CN(C)CCCNC(=S)S | > 100 µM (inactive) | > 100 µM (inactive) | > 100 µM (inactive) | > 100 µM (inactive) | > 100 µM (inactive) | > 100 µM (inactive) | > 100 µM (inactive) | > 100 µM (inactive) | > 100 µM (inactive) | > 100 µM (inactive) | > 100 µM (inactive) |  | > 100 µM (inactive) |  |  |  |  |  | 
